Patent US9864847B2, “Method for predicting the solubility of a molecule in a polymer at a given temperature” (priority 2014, dated 2018)

Tests used:
[1] = indomethacin / PVP-K30 at 25° C.; cited from earlier work
[2] = Difference in specific enthalpy and specific entropy (solid solution minus unmixed components) from DSC specific heats; type: physicochemical; conditions: indomethacin 2.5% by weight with PVP-K30
Description: In practice, there is a lower limit to the temperature at which thermal analysis instruments such as DSC can provide accurate experimental data. As a result, it is not possible to experimentally obtain the necessary specific heats over all temperatures down to absolute zero, but instead they only be evaluated to a minimum temperature, denoted by Tmin. The experimental data can be used to construct a temperature-dependent difference in specific heats, denoted as ΔCP, which is defined as the difference between the specific heat of the solid solution minus the specific heat of the unmixed components in the same ratio, over the temperature range of Tmin to any higher temperature T for which experimental specific heat data is available. This is given by Δ[…]) (29) Because of the thermal analysis instrument limitations, ΔCP provides no data between absolute zero and Tmin, so it is necessary to estimate the values of specific heat differences at temperatures below Tmin. One way to do this is to extrapolate the plot of the experimentally obtained ΔCP vs. the temperature from Tmin to absolute zero. This can be done as follows. • Obtain the experimental values for ΔCP from Tmin up to at least temperature Tat which the solubility of the drug in the polymer is to be evaluated. • Construct an approximating function Δc that is a function of the temperature, which will be used to estimate ΔCP at temperatures lower than Tmin. • Fit the function Δc to the experimental values of ΔCP from Tmin to T using any appropriate method, such as linear or nonlinear regression. • Using the fitted equation for Δc, calculate values of Δc over temperatures from absolute zero to Tmin. These values will be used as substitutes for experimental specific heat difference for temperatures below Tmin. There is no theoretical model or equation that dictates the mathematical form of Δc, and more than one functional form can be chosen. […] One preferred form would be a sum of a constant plus exponentials, such as Δ[…]) (30) where a0, a1 . . . a8 are temperature independent parameters with values that can be determined or fit by nonlinear regression or other methods so Eq. (30) will be a good approximation to the experimental ΔCP vs. temperature data over the experimental temperature range. […] (The value for a4 was not determined because the coefficient multiplying the exponential a3 was zero. […] Using the values Δc calculated from Eq. (34) for temperatures from 0 to […], and the experimental values of ΔCP, values of Δ[…] calculated from Eq. (31) and (32), respectively, for various temperatures. For this combination of indomethacin and PVP-K30, the calculated specific enthalpy values at -10° C. and 25° C.

[3] = 25° C.
Description: The drug indomethacin and the polymer PVP-K30 were taken in various ratios, corresponding to weight percentages of indomethacin in the mixture of 2.5%, 10%, 15%, and 20%. DSC was performed on the pure indomethacin and pure PVP-K30, and the specific heat for each was obtained as a function of the temperature over the range of 220K to 310K. The DSC instrument provided reliable data as low as 220K, which was taken as Tmin. Solid solutions were formed by mixing the drug and polymer in a mortar and pestle, allowing them to stand at 130° C. (403 K) for 5 days, then allowing them to cool to room temperature. DSC was also performed to determine the specific heat of the solid solutions from 220K to 300K. All DSC was performed using a pinhole in the lid and was thus considered open pan, so the specific heats were considered to be obtained at constant pressure. All heating and cooling rates were 5° C. per minute. […]
The entire procedure was repeated for each indomethacin-PVP combinations (2.5% m 10%, 15% and 20% indomethacin by weight), including obtaining the adjustable parameters a0, a1 . . . a8 for each indomethacin/PVP-K30 combination. […] The values of ΔgSS at 25° C. were calculated for each drug-polymer ratio from Eq. (33), and subsequently used to calculate values of ΔgSS/f0.

COc1ccc2c(c1)c(CC(=O)O)c(C)n2C(=O)c1ccc(Cl)cc1 [indomethacin]
interaction parameter χ [1]: 0.747 | Δhheat (calculated specific enthalpy difference) ([2]; 25° C. (298 K)): 18.347 J/g | Δsheat (calculated specific entropy difference) ([2]; 25° C. (298 K)): 0.0787 J/K/g | Δhheat (calculated specific enthalpy difference) ([2]; −10° C. (263 K)): 9.66 J/g | Δsheat (calculated specific entropy difference) ([2]; −10° C. (263 K)): 0.0479 J/K/g | maximum stable weight fraction of indomethacin in PVP-K30 solid solution [3]: 15 % by weight | indomethacin weight fraction at minimum of ΔgSS/f0 ([3]; PVP-K30, FIG. 4): approximately 0.15
